In the supplement of paper PMC10307832:

Assays:
Assay in all cases: relative viability (nuclei count vs DMSO), 5 days (fraction); higher = more cells survive
[1] = compound: C1=CC2=NC=CN=C2C=C1/C=C/3\C(=O)NC(=O)S3 + CC(=O)c1c(C)c2cnc(Nc3ccc(N4CCNCC4)cn3)nc2n(C2CCCC2)c1=O [Palbociclib] (partner 0.5 µM)
Procedure, shortened: (§1)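 Values are medians from duplicate plates. Each reflects relative viability, defined as the nuclei count of treated wells over that of vehicle wells. Lung cancer cell lines in 1536-well plates were pin-tool dosed one day after seeding with one drug alone or with a fixed anchor-drug dose plus five library-drug doses (not always all listed) in √10 steps, then fixed, stained and imaged at 4× after 5 days.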

[2] = compound: C1=CC2=NC=CN=C2C=C1/C=C/3\C(=O)NC(=O)S3 + Nc1nc2[nH]cc(CCc3ccc(C(=O)N[C@@H](CCC(=O)O)C(=O)O)cc3)c2c(=O)[nH]1 [Pemetrexed] (partner 0.2 µM)
Procedure, shortened: as §1

BGJ398 + Alpelisib = compound: CCN1CCN(c2ccc(Nc3cc(N(C)C(=O)Nc4c(Cl)c(OC)cc(OC)c4Cl)ncn3)cc2)CC1 [BGJ398] + Cc1nc(NC(=O)N2CCC[C@H]2C(N)=O)sc1-c1ccnc(C(C)(C)C(F)(F)F)c1 [Alpelisib] (partner 2 µM)
Procedure, shortened: as §1

BGJ398 + Decitabine = compound: CCN1CCN(c2ccc(Nc3cc(N(C)C(=O)Nc4c(Cl)c(OC)cc(OC)c4Cl)ncn3)cc2)CC1 [BGJ398] + Nc1ncn([C@H]2C[C@H](O)[C@@H](CO)O2)c(=O)n1 [Decitabine] (partner 2 µM)
Procedure, shortened: as §1

| Cell Line | relative viability ([1]; first compound 0.02 µM) | relative viability ([1]; first compound 0.06325 µM) | relative viability ([1]; first compound 0.2 µM) | relative viability ([1]; first compound 0.6325 µM) | relative viability ([1]; first compound 2 µM) | relative viability ([2]; first compound 0.02 µM) | relative viability ([2]; first compound 0.06325 µM) | relative viability ([2]; first compound 0.2 µM) | relative viability ([2]; first compound 0.6325 µM) | relative viability ([2]; first compound 2 µM) | relative viability (BGJ398 + Alpelisib; first compound 0.01 µM) | relative viability (BGJ398 + Alpelisib; first compound 0.03162 µM) | relative viability (BGJ398 + Alpelisib; first compound 0.1 µM) | relative viability (BGJ398 + Alpelisib; first compound 0.3162 µM) | relative viability (BGJ398 + Alpelisib; first compound 1 µM) | relative viability (BGJ398 + Decitabine; first compound 0.01 µM) | relative viability (BGJ398 + Decitabine; first compound 0.03162 µM) | relative viability (BGJ398 + Decitabine; first compound 0.1 µM) | relative viability (BGJ398 + Decitabine; first compound 0.3162 µM) | relative viability (BGJ398 + Decitabine; first compound 1 µM) |
| --- | --- | --- | --- | --- | --- | --- | --- | --- | --- | --- | --- | --- | --- | --- | --- | --- | --- | --- | --- | --- |
| NCI-H1915 | 0.538 | 0.578 | 0.561 | 0.512 | 0.533 | 0.463 | 0.456 | 0.489 | 0.478 | 0.483 | 0.981 | 1.05 | 1.1 | 1.08 | 1.05 | 0.271 | 0.248 | 0.28 | 0.281 | 0.241 |
| NCI-H1793 | 0.289 | 0.296 | 0.282 | 0.336 | 0.288 | 0.726 | 0.74 | 0.837 | 0.727 | 0.715 | 0.676 |  | 0.955 | 0.696 | 0.549 | 0.479 | 0.457 | 0.451 | 0.423 | 0.376 |
| NCI-H2023 | 0.405 | 0.408 | 0.314 | 0.337 | 0.27 | 0.251 | 0.269 | 0.24 | 0.214 | 0.182 | 0.576 | 0.644 | 0.534 | 0.586 | 0.579 | 0.197 | 0.226 | 0.23 | 0.218 | 0.211 |
| COR-L 105 | 0.429 | 0.423 | 0.387 | 0.349 | 0.412 | 1.13 | 1.14 | 1.08 | 1.12 | 1.02 | 0.919 | 0.956 | 0.979 | 1.05 | 1.06 | 0.636 | 0.587 | 0.637 | 0.601 | 0.69 |
| RERF-LC-KJ | 1.04 | 1.12 | 1.05 | 0.994 | 1.15 | 0.525 | 0.501 | 0.465 | 0.489 | 0.455 | 0.922 | 0.85 | 0.816 | 0.833 | 0.79 | 0.66 | 0.79 | 0.765 | 0.739 | 0.642 |
| LXF-289 | 0.529 | 0.632 | 0.574 | 0.552 | 0.637 | 0.841 | 0.823 | 0.789 | 0.908 | 0.899 | 0.983 | 1.03 | 1.02 | 0.957 | 0.947 | 0.351 | 0.415 | 0.332 | 0.325 | 0.38 |
| PC-14 | 0.492 | 0.539 | 0.559 | 0.488 | 0.587 | 0.138 | 0.148 | 0.156 | 0.131 | 0.145 | 0.824 | 0.845 | 0.98 | 0.958 | 0.938 | 0.179 | 0.148 | 0.252 | 0.193 | 0.135 |
| NCI-H650 | 0.346 | 0.336 | 0.36 | 0.344 | 0.275 | 1.03 | 0.996 | 1.02 | 0.864 | 0.659 | 1.05 | 1.2 | 1.33 | 1.19 | 1.1 | 0.356 | 0.318 | 0.398 | 0.312 | 0.359 |
| NCI-H1666 | 0.608 | 0.749 | 0.629 | 0.651 | 0.675 | 0.898 | 0.548 | 0.838 | 0.96 | 0.759 | 1.01 | 1.08 | 1.01 | 0.922 | 0.909 | 0.634 | 0.763 | 0.814 | 0.68 | 0.506 |
| NCI-H2085 | 0.494 | 0.436 | 0.485 | 0.448 | 0.46 | 0.907 | 0.917 | 0.92 | 0.892 | 0.807 | 0.96 | 1.01 | 0.93 | 0.975 | 0.921 | 0.528 | 0.578 | 0.544 | 0.535 | 0.547 |
| NCI-H1734 | 0.328 |  | 0.333 | 0.352 | 0.318 | 0.384 |  | 0.427 | 0.436 | 0.362 | 0.678 | 0.654 | 0.725 | 0.676 | 0.742 | 0.456 | 0.555 | 0.409 | 0.404 | 0.47 |
| NCI-H2126 | 0.329 | 0.404 | 0.358 | 0.369 | 0.339 | 0.65 | 0.772 | 0.684 | 0.713 | 0.463 | 0.78 | 0.746 | 0.735 | 0.766 | 0.853 | 0.608 | 0.601 | 0.611 | 0.612 | 0.566 |
| EMC-BAC-2 | 0.496 | 0.568 | 0.54 | 0.498 | 0.384 | 0.402 | 0.424 | 0.44 | 0.434 | 0.417 | 0.727 | 0.77 | 0.786 | 0.787 | 0.738 | 0.96 | 1.03 | 0.97 | 0.915 | 0.932 |
| NCI-H1993 | 0.623 | 0.68 | 0.58 | 0.603 | 0.331 | 0.528 | 0.665 | 0.607 | 0.54 | 0.449 | 0.689 | 0.623 | 0.642 | 0.746 | 0.7 | 0.59 | 0.624 | 0.582 | 0.696 | 0.576 |
| NCI-H520 | 0.211 | 0.246 | 0.251 | 0.181 | 0.201 | 0.684 | 0.726 | 0.71 | 0.783 | 0.711 | 0.888 | 0.886 | 0.506 | 0.414 | 0.243 | 0.538 | 0.436 | 0.397 | 0.242 | 0.295 |
| NCI-H647 | 0.314 | 0.488 | 0.41 | 0.363 | 0.342 | 0.162 | 0.19 | 0.168 | 0.178 | 0.182 | 1.05 | 1.19 | 1.06 | 1.26 | 1.15 | 0.413 | 0.359 | 0.491 | 0.336 | 0.412 |
| NCI-H1792 | 0.652 | 0.471 | 0.663 | 0.595 | 0.425 | 0.755 |  | 0.756 | 0.831 | 0.47 | 0.634 | 0.755 | 0.898 | 0.706 | 0.456 | 0.476 | 0.533 | 0.568 | 0.474 | 0.441 |
| SK-LU-1 | 0.376 | 0.367 | 0.374 | 0.403 | 0.411 | 1.03 | 1.1 | 1.02 | 0.967 | 0.798 | 0.939 | 0.885 | 1.02 | 0.971 | 0.796 | 0.62 | 0.572 | 0.761 | 0.527 | 0.584 |
| NCI-H2009 | 0.241 | 0.241 | 0.216 | 0.171 | 0.16 | 1.05 | 1.1 | 1.01 | 1.01 | 1.18 | 1.13 | 1.19 | 1.11 | 1.17 | 1.09 | 0.358 | 0.371 | 0.399 | 0.425 | 0.361 |
| LOU-NH91 | 0.501 | 0.538 | 0.556 | 0.552 | 0.548 | 0.376 | 0.326 | 0.391 | 0.399 | 0.407 | 0.727 | 0.531 | 0.717 | 0.491 | 0.697 | 0.837 | 0.676 | 0.813 | 0.649 | 0.821 |
| NCI-H2405 | 0.517 | 0.585 | 0.528 | 0.512 | 0.436 | 1.1 | 1.28 | 1.22 | 1.05 | 0.859 | 0.723 | 0.932 | 0.831 | 0.79 | 0.875 | 0.703 | 0.74 | 0.81 | 0.734 | 0.741 |
| LCLC-97TM1 | 0.239 | 0.214 | 0.215 | 0.176 | 0.155 | 0.138 | 0.199 | 0.187 | 0.152 | 0.152 | 0.233 | 0.269 | 0.231 | 0.214 | 0.265 | 0.238 | 0.222 | 0.214 | 0.216 | 0.225 |
| H3255 | 0.328 | 0.342 | 0.314 | 0.318 | 0.307 | 0.532 | 0.559 | 0.577 | 0.616 | 0.533 | 0.676 |  | 0.747 | 0.37 | 0.792 | 0.585 |  | 0.591 |  | 0.681 |
| SK-MES-1 | 0.328 | 0.305 | 0.344 | 0.338 | 0.313 | 0.99 | 1.01 | 0.953 | 0.884 | 0.837 | 0.826 | 1 | 0.815 | 0.866 | 0.57 | 0.377 | 0.345 | 0.41 | 0.349 | 0.321 |
| NCI-H1437 | 0.306 | 0.297 | 0.328 | 0.305 | 0.277 | 0.345 | 0.291 | 0.293 | 0.289 | 0.265 | 0.96 | 0.989 | 0.955 | 0.991 | 0.972 | 0.59 | 0.532 | 0.606 | 0.598 | 0.515 |
| LU99A | 0.444 | 0.389 | 0.439 | 0.398 | 0.276 | 0.167 | 0.131 | 0.165 | 0.176 | 0.166 | 0.532 | 0.49 | 0.534 | 0.487 | 0.411 | 0.776 | 0.763 | 0.735 | 0.756 | 0.68 |
| HCC-827 | 0.616 | 0.436 | 0.425 | 0.51 | 0.473 | 0.246 | 0.265 | 0.266 | 0.268 | 0.274 | 0.821 |  | 1.1 | 0.962 | 1.05 | 0.286 |  | 0.332 | 0.185 | 0.27 |
